Measurements as given in patent US8859756B2, “Stereoselective synthesis of phosphorus containing actives” (Gilead Pharmasset LLC, priority 2010, dated 2014).
Like-named read-outs stand apart in the source and are kept apart here.

Tests used:
Format in all cases: cell-based
[1] = Cell Cytotoxicity Assays (MTS dye); conditions: human, 50% inhibition value, cell line not given; for CC50: 8 days
Description: (§1) Cell Cytotoxicity Assays.
(§2) Each compound (serially diluted from 100 μM) was added to Huh7 (2×10^3 cells/well), HepG2 (2×10^3 cells/well), BxPC3 (2×10^3 cells/well), or CEM (5×10^3 cells/well) cells and allowed to incubate for 8 days at 37° C. A medium only control was used to determine the minimum absorbance value […]. At the end of the growth period, MTS dye from the CellTiter 96 Aqueous One Solution Cell Proliferation Assay kit (Promega) was added to each well and the plate was incubated for an additional 2 hours. The absorbance at 490 nm was read with a Victor3 plate reader (Perkin Elmer) using the medium only control wells as blanks. The 50% inhibition value (CC50) was determined by comparing the absorbance in wells containing cells and test compound to untreated cell control wells.

HCV RNA replication = assay: HCV Inhibition Assay (replicon; RT-PCR or luciferase reporter readout); conditions: concentration for 90% inhibition of HCV replication, Clone A or ET-lunet replicon cells, 4 days
Description: Clone A or ET-lunet cells were seeded at a density of 1500 or 3000 cells per well in a 96-well plate, respectively. Test compounds serially diluted in culture medium without G418 were added to cells so that the final DMSO concentration was 0.5%. Plates were incubated at 37° C. in a 5% CO2 atmosphere for 4 days. Inhibition of HCV RNA replication was determined by real time PCR (RT-PCR) or by measuring the levels of luminescence expressed via the luciferase reporter gene encoded within the ET replicon. Briefly, for the RT-PCR assay, total RNA was extracted using the RNeasy-96 kit as recommended by the manufacturer (Qiagen, Valencia, Calif.), reversed transcribed into cDNA, and amplified using primer and probe mix for HCV 5′-NTR RNA and human ribosomal RNA (rRNA) in a one-step RT-PCR reaction as described previously (Stuyver, L. J. et al. Antiviral Chem. Chemother. (2006) 17, 79-87). A relative quantification method was used to determine the extent of inhibition. The threshold cycle (Ct) of rRNA was subtracted from the Ct of HCV RNA (ΔCt). The average ΔCt of the DMSO cell controls was then subtracted from the ΔCt of the compound treated sample (ΔΔCt). Percent inhibition was determined by using the following equation: %=(1−(2^−ΔΔC^t))×100. For the luciferase-based replicon assay, luminescence was measured by using a Victor3 plate reader (Perkin-Elmer, Boston, Mass.) following the addition of Bright-Glo reagent as recommended by the manufacturer (Promega, Madison, Wis.). Percent inhibition of HCV replication was determined by comparing the change in luminescence of the drug treated wells versus the DMSO cell controls. EC50 and EC90 values, the concentrations at which 50% and 90% inhibition were achieved, were determined using the GraphPad Prism software (San Diego, Calif.).

[2] = tested on: Huh7, HepG2, BxPC3, or CEM cells; assay: Cell Cytotoxicity Assays (MTS dye); conditions: 50% inhibition value, 8 days, cell line not given
Description: as §1, §2

[3] = Cytotoxicity, MTT Assay (table footnote a)
[4] = Hepatitis C virus, 96 h, read-out: EC90

| Structure (SMILES) | EC90 (HCV RNA replication; [4]) | CC50 [1] | further results |
| --- | --- | --- | --- |
| COc1nc(N)nc2c1ncn2[C@@H]1O[C@H](COP(=O)(NCc2ccccc2)OCCSC(=O)C(C)(C)CO)[C@@H](O)[C@@]1(C)O (single isomer, unassigned) [Compound 131a] | 93 nM |  | CC50 at 8 days [1]: > 20000 nM |
| COc1nc(N)nc2c1ncn2[C@@H]1O[C@H](COP(=O)(NCc2ccccc2)OCCSC(=O)C(C)(C)CO)[C@@H](O)[C@@]1(C)O (single isomer, unassigned) [Compound 131b] |  |  | CC50 [2]: > 20000 nM; EC90 (HCV RNA replication; read-out: EC90): 186 nM |
| CC(C)(CO)C(=O)SCCOP(=O)(NCc1ccccc1)OC[C@H]1O[C@@H](n2cnc3c(=O)[nH]c(N)nc32)[C@](C)(O)[C@@H]1O (single isomer, unassigned) [Compound 132a] | 300 nM |  | CC50 at 8 days [1]: > 20000 nM |
| CC(C)(CO)C(=O)SCCOP(=O)(NCc1ccccc1)OC[C@H]1O[C@@H](n2cnc3c(=O)[nH]c(N)nc32)[C@](C)(O)[C@@H]1O (single isomer, unassigned) [Compound 132b] |  |  | CC50 [2]: > 20000 nM; EC90 (HCV RNA replication; read-out: EC90): 350 nM |
| CNC(=O)c1c(-c2ccc(F)cc2)oc2cc(N(CCO)S(C)(=O)=O)c(C3CC3)cc12 [Compound 44, 5-cyclopropyl-2-(4-fluorophenyl)-6-[(2-hydroxyethyl)(methylsulfonyl)amino]-N-methyl-3-Benzofurancarboxamide, reference compound] | 20 nM |  | CC50 [3]: > 10000 nM |
| CC(C)OC(=O)[C@H](C)NP(=O)(OC[C@H]1O[C@@H](n2ccc(=O)[nH]c2=O)[C@](C)(F)[C@@H]1O)Oc1ccccc1 (stereo partly drawn) [Compound 110, (S)-2-{[(1R,4R,5R)-5-(2,4-Dioxo-3,4-dihydro-2H-pyrimidin-1-yl)-4-(R)-fluoro-3-hydroxy-4-methyl-tetrahydro-furan-2-ylmethoxy]-phenoxy-phosphorylamino}-propionic acid (S)-isopropyl ester] |  |  | CC50 [2]: > 20000 nM; EC90 (HCV RNA replication; read-out: EC90): 220 nM |
| COc1nc(N)nc2c1ncn2[C@@H]1O[C@H](CO[P@@](=O)(N[C@@H](C)C(=O)OC(C)C)Oc2ccccc2)[C@@H](O)[C@@]1(C)F [Compound 117, SP-(2S)-isopropyl 2-(((((2R,3R,4R,5R)-5-(2-amino-6-methoxy-9H-purin-9-yl)-4-fluoro-3-hydroxy-4-methyltetrahydrofuran-2-yl)methoxy)(phenoxy)phosphoryl)amino)propanoate] | 130 nM | > 20000 nM |  |
| COc1nc(N)nc2c1ncn2[C@@H]1O[C@H](CO[P@@](=O)(N[C@@H](C)C(=O)OC(C)C)Oc2ccccc2)[C@@H](O)[C@@]1(C)O [Compound 133, (S)-isopropyl 2-(((S)-(((2R,3R,4R,5R)-5-(2-amino-6-methoxy-9H-purin-9-yl)-3,4-dihydroxy-4-methyltetrahydrofuran-2-yl)methoxy)(phenoxy)phosphoryl)amino)propanoate] | 78 nM | 4140 nM |  |
| CC(C)OC(=O)[C@H](C)N[P@](=O)(OC[C@H]1O[C@@H](n2cnc3c(=O)[nH]c(N)nc32)[C@](C)(O)[C@@H]1O)Oc1ccccc1 [Compound 134, (S)-isopropyl 2-(((S)-(((2R,3R,4R,5R)-5-(2-amino-6-oxo-1H-purin-9(6H)-yl)-3,4-dihydroxy-4-methyltetrahydrofuran-2-yl)methoxy)(phenoxy)phosphoryl)amino)propanoate] | 560 nM | > 20000 nM |  |
| CNC(=O)c1c(-c2ccc(F)cc2)oc2cc(N(CCO[P@@](=O)(N[C@@H](C)C(=O)OC(C)C)Oc3ccccc3)S(C)(=O)=O)c(C3CC3)cc12 [Compound 135, (S)-isopropyl 2-(((S)-(2-(N-(5-cyclopropyl-2-(4-fluorophenyl)-3-(methylcarbamoyl)benzofuran-6-yl)methylsulfonamido)ethoxy)(phenoxy)phosphoryl)amino)propanoate] | 81 nM | > 20000 nM |  |
| COc1nc(N)nc2c1ncn2[C@@H]1O[C@H](COP(=O)(N[C@@H](C)C(=O)OCC(C)(C)C)Oc2cccc3ccccc23)[C@@H](O)[C@@]1(C)O (stereo partly drawn) [Compound 137, (2S)-neopentyl 2-(((((2R,3R,4R,5R)-5-(2-amino-6-methoxy-9H-purin-9-yl)-3,4-dihydroxy-4-methyltetrahydrofuran-2-yl)methoxy)(naphthalen-1-yloxy)phosphoryl)amino)propanoate] |  |  | CC50 at 8 days [1]: > 1000 nM; EC90 (HCV RNA replication; Hepatitis C virus, 96 h): 1.7 nM |
| COc1nc(N)nc2c1ncn2[C@@H]1O[C@H](COP(=O)(N[C@@H](C)C(=O)OCC(C)(C)C)Oc2cccc3ccccc23)[C@@H](O)[C@@]1(C)O (stereo partly drawn) [Compound 137a, (S)-neopentyl 2-(((((2R,3R,4R,5R)-5-(2-amino-6-methoxy-9H-purin-9-yl)-3,4-dihydroxy-4-methyltetrahydrofuran-2-yl)methoxy)(naphthalen-1-yloxy)phosphoryl)amino)propanoate] | 3.7 nM | 930 nM |  |
| CC(C)OC(=O)[C@H](C)N[P@](=O)(OC[C@H]1O[C@@H](n2ccc3c(N)ncnc32)[C@](C)(O)[C@@H]1O)Oc1ccccc1 [Compound 139, (S)-2-{(S)-[(2R,3R,4R,5R)-5-(4-amino-pyrrolo[2,3-d]pyrimidin-7-yl)-3,4-dihydroxy-4-methyl-tetrahydro-furan-2-ylmethoxy]-phenoxy-phosphorylamino}-propionic acid isopropyl ester] | 20 nM | > 10000 nM |  |
| COc1nc(N)nc2c1ncn2[C@@H]1O[C@H](COP(=O)(N[C@@H](C)C(=O)OCC(C)(C)C)Oc2cccc3ccccc23)[C@@H](O)[C@@]1(C)F (stereo partly drawn) [Compound 140, (2S)-neopentyl 2-(((((2R,3R,4R,5R)-5-(2-amino-6-methoxy-9H-purin-9-yl)-4-fluoro-3-hydroxy-4-methyltetrahydrofuran-2-yl)methoxy)(naphthalen-1-yloxy)phosphoryl)amino)propanoate] |  |  | CC50 at 8 days [1]: > 20000 nM; EC90 (HCV RNA replication; Hepatitis C virus, 96 h): 3.5 nM |
